Experimental data from ChEMBL document CHEMBL1201862, “PubChem BioAssay data set” (2004).
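Briefly, cells in 96-well plates were exposed to five compound concentrations for 48 h, and endpoints were estimated by linear interpolation. GI50 = concentration required for 50% inhibition of growth.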 Activity calls are given as the source filed them. No stated cut-off is given here; in the data, active = GI50 up to about 1.1 µM and inactive = higher.

Assays:
Test in all cases: inhibition of tumour cell growth, NCI panel, 48 h
LOX IMVI = test system: LOX IMVI
TK-10 = test system: TK-10
UACC-257 = test system: UACC-257
HL-60 = test system: HL-60
NCI-H226 = test system: NCI-H226
Malme-3M = test system: Malme-3M
M14 = test system: M14
MCF7 = test system: MCF7
RPMI-8226 = test system: RPMI-8226
MDA-N = test system: MDA-N
786-0 = test system: 786-0
OVCAR-5 = test system: OVCAR-5
OVCAR-3 = test system: OVCAR-3
HCT-15 = test system: HCT-15
OVCAR-8 = test system: OVCAR-8
A549 = test system: A549
NCI-H460 = test system: NCI-H460
HCC 2998 = test system: HCC 2998
SK-MEL-2 = test system: SK-MEL-2
RXF 393 = test system: RXF 393

Row | SMILES | GI50 (LOX IMVI) | GI50 (TK-10) | GI50 (UACC-257) | GI50 (HL-60) | GI50 (NCI-H226) | GI50 (Malme-3M) | GI50 (M14) | GI50 (MCF7) | GI50 (RPMI-8226) | GI50 (MDA-N) | GI50 (786-0) | GI50 (OVCAR-5) | GI50 (OVCAR-3) | GI50 (HCT-15) [µM] | GI50 (OVCAR-8) | GI50 (A549) | GI50 (NCI-H460) | GI50 (HCC 2998) | GI50 (SK-MEL-2) | GI50 (RXF 393)
1 | COC(=O)c1ccccc1OCc1cc(=O)oc2ccc(C)cc12 | > 69.2 µM (inactive) | 58.7 µM (inactive) | > 87.3 µM (inactive) | > 100 µM (inactive) | 90.4 µM (inactive) | > 100 µM (inactive) | > 87.7 µM (inactive) | 21.4 µM (inactive) | > 63.4 µM (inactive) | > 100 µM (inactive) | 39.1 µM (inactive) | > 100 µM (inactive) | 29.4 µM (inactive) | > 100 | 39.3 µM (inactive) | 82.2 µM (inactive) | > 100 µM (inactive) | > 100 µM (inactive) | > 42.6 µM (inactive) | 
2 | CC1=C(C#N)C(=O)N(/N=C/c2ccc(Cl)cc2)C(=O)/C1=c1\o/c(=C2/C(=O)N(/N=C/c3ccc(Cl)cc3)C(=O)C(C#N)=C2C)c2nccnc12 | > 100 µM (inactive) |  | > 100 µM (inactive) | 84.5 µM (inactive) | 78.2 µM (inactive) | > 100 µM (inactive) | > 100 µM (inactive) | 70.5 µM (inactive) | 60.7 µM (inactive) | 77.3 µM (inactive) | > 100 µM (inactive) | > 100 µM (inactive) | > 100 µM (inactive) | 82 | > 100 µM (inactive) | > 100 µM (inactive) | > 100 µM (inactive) | 42.2 µM (inactive) | > 100 µM (inactive) | 19.5 µM (inactive)
3 | CCSc1n/c(=C\c2ccco2)c2nncn12 | > 100 µM (inactive) | > 100 µM (inactive) |  | > 100 µM (inactive) | > 100 µM (inactive) | > 100 µM (inactive) | > 100 µM (inactive) | > 100 µM (inactive) | > 100 µM (inactive) | > 100 µM (inactive) | > 100 µM (inactive) | > 100 µM (inactive) | > 100 µM (inactive) | > 100 | > 100 µM (inactive) | > 100 µM (inactive) |  |  | > 100 µM (inactive) | 
4 | C=CCOc1ccccc1C1(O)c2ccccc2C2=NCCCN21 (stereo not drawn) | 38.1 µM (inactive) | 90.8 µM (inactive) | 30.9 µM (inactive) | 26.8 µM (inactive) | 31.8 µM (inactive) |  | 18.7 µM (inactive) | 31.5 µM (inactive) | 35.6 µM (inactive) | 39.9 µM (inactive) | 47.3 µM (inactive) | 32.3 µM (inactive) | 22.2 µM (inactive) | > 100 | 19.5 µM (inactive) | > 100 µM (inactive) | 78.9 µM (inactive) | 15.7 µM (inactive) |  | 
5 | Cc1ccc(C(=O)O)cc1S(=O)(=O)Nn1cnc2ccc(S(=O)(=O)Nc3ccccc3C(=O)O)cc2c1=O | > 100 µM (inactive) | > 100 µM (inactive) | > 100 µM (inactive) | > 100 µM (inactive) | 83.8 µM (inactive) | > 100 µM (inactive) | 18.3 µM (inactive) | > 100 µM (inactive) | 54.5 µM (inactive) | 47.3 µM (inactive) | > 100 µM (inactive) | 54.6 µM (inactive) | > 100 µM (inactive) | > 100 | > 100 µM (inactive) | > 100 µM (inactive) | > 100 µM (inactive) | > 100 µM (inactive) | 61 µM (inactive) | 
6 | O=C(/N=N/c1ccc([N+](=O)[O-])cc1)NNc1ccc([N+](=O)[O-])cc1 | 11.2 µM (inactive) | 20.1 µM (inactive) | 24.3 µM (inactive) | 11.9 µM (inactive) | 19.5 µM (inactive) | 19 µM (inactive) | 13.5 µM (inactive) | 4.58 µM (inactive) | 14.3 µM (inactive) | 11.6 µM (inactive) | 13.7 µM (inactive) | 14.5 µM (inactive) | 20.5 µM (inactive) | 19.2 | 17.2 µM (inactive) | 26 µM (inactive) | 19.6 µM (inactive) | 14.2 µM (inactive) | 13.3 µM (inactive) | 
7 | CC(=O)[C@]12OC(=O)C3=C1[C@H](CC[C@@H]3C)[C@@H](C)C[C@H]2C=C(C)C | 7.93 µM (inactive) |  | 9.75 µM (inactive) | 7.71 µM (inactive) | 8.28 µM (inactive) |  | 8.39 µM (inactive) | 8.85 µM (inactive) | 7.26 µM (inactive) | 7.59 µM (inactive) | 8.55 µM (inactive) | 8.11 µM (inactive) | 7.31 µM (inactive) | 7.96 | 8.49 µM (inactive) | 7.48 µM (inactive) | 8.63 µM (inactive) |  | 7.82 µM (inactive) | 
8 | C=Cc1c(C)c(OC)cc2c1Oc1ccc(OC)c(C)c1CC2 |  | > 100 µM (inactive) | 43.5 µM (inactive) | > 100 µM (inactive) | 39.9 µM (inactive) | > 100 µM (inactive) | > 100 µM (inactive) | > 100 µM (inactive) | > 100 µM (inactive) | > 100 µM (inactive) | > 100 µM (inactive) | > 100 µM (inactive) |  | > 100 | > 100 µM (inactive) | > 100 µM (inactive) | > 100 µM (inactive) | > 100 µM (inactive) | > 100 µM (inactive) | > 100 µM (inactive)
9 | CC(C)(CN1CCCCC1)C(=O)CC(SCCS(=O)(=O)O)c1ccc(Cl)cc1 (stereo not drawn) |  | 6.32 µM (inactive) | 6.67 µM (inactive) | 6.18 µM (inactive) | 12 µM (inactive) | 5.38 µM (inactive) | 3.19 µM (inactive) | 3.3 µM (inactive) | 3.31 µM (inactive) | 2.81 µM (inactive) | 3.31 µM (inactive) | 1.86 µM (inactive) | 5.22 µM (inactive) | 2.19 | 3.23 µM (inactive) | 6.56 µM (inactive) | 6.41 µM (inactive) | 12.3 µM (inactive) | 2.22 µM (inactive) | 3.1 µM (inactive)
10 | CC1(C)Cc2c(c3ccccc3c3nc4c(nc23)c2c(c3ccccc34)OC(C)(C)C2)O1 | > 100 µM (inactive) | > 100 µM (inactive) | > 100 µM (inactive) | > 100 µM (inactive) |  | > 100 µM (inactive) | > 100 µM (inactive) | > 100 µM (inactive) | > 100 µM (inactive) | > 100 µM (inactive) | > 100 µM (inactive) | > 100 µM (inactive) | > 100 µM (inactive) | > 100 | > 100 µM (inactive) | > 100 µM (inactive) | > 100 µM (inactive) | > 100 µM (inactive) | > 100 µM (inactive) | > 100 µM (inactive)
11 | CC1=NN2C(=O)CC(=O)N=C2S1 | > 100 µM (inactive) | > 100 µM (inactive) | > 100 µM (inactive) | > 100 µM (inactive) | > 100 µM (inactive) | > 100 µM (inactive) | > 100 µM (inactive) | > 100 µM (inactive) | > 100 µM (inactive) | > 100 µM (inactive) | > 100 µM (inactive) | > 100 µM (inactive) | > 100 µM (inactive) | > 100 | > 100 µM (inactive) | > 100 µM (inactive) | > 100 µM (inactive) |  | > 100 µM (inactive) | > 100 µM (inactive)
12 | COc1ccc2cc(C(C)C(O)c3cc(F)c(F)c(F)c3F)ccc2c1 (stereo not drawn) | > 100 µM (inactive) | > 100 µM (inactive) | > 100 µM (inactive) | 18.7 µM (inactive) | > 100 µM (inactive) | > 100 µM (inactive) | > 100 µM (inactive) | > 100 µM (inactive) | > 100 µM (inactive) | > 100 µM (inactive) | > 100 µM (inactive) | > 100 µM (inactive) | 98.6 µM (inactive) | > 100 | 65.3 µM (inactive) | > 100 µM (inactive) | > 100 µM (inactive) | > 100 µM (inactive) |  | 
13 | CSc1ncnc2c1cnn2Cc1cn(COCC(O)CO)nn1 (stereo not drawn) | > 100 µM (inactive) | > 100 µM (inactive) | > 100 µM (inactive) | > 100 µM (inactive) | > 100 µM (inactive) |  | > 100 µM (inactive) | > 100 µM (inactive) | > 100 µM (inactive) | > 100 µM (inactive) | > 100 µM (inactive) | > 100 µM (inactive) | > 100 µM (inactive) | > 100 | > 100 µM (inactive) | > 100 µM (inactive) |  | > 100 µM (inactive) | > 100 µM (inactive) | 
14 | O=C(O)C(O)C(O)C(O)C(O)c1nc2ccccc2s1 (stereo not drawn) | 16.9 µM (inactive) | 15.9 µM (inactive) | 15.8 µM (inactive) | 17.6 µM (inactive) | 29.8 µM (inactive) | 15.5 µM (inactive) | 17.8 µM (inactive) | 17.1 µM (inactive) | 25.9 µM (inactive) | 17.1 µM (inactive) | 16.8 µM (inactive) | 26.9 µM (inactive) | 17.5 µM (inactive) | 27.9 | 18.5 µM (inactive) | 18.2 µM (inactive) | 16.3 µM (inactive) |  | 19.2 µM (inactive) | 18 µM (inactive)
15 | Cc1c(O)c(OC2OC(CO)C(O)C(O)C2O)cc2c1CC[C@@H]1C2(C)C(=O)C[C@]2(C)[C@@H]([C@@](C)(O)C(O)/C=C/C(C)(C)O)[C@H](O)C[C@@]12C (stereo partly drawn) | > 100 µM (inactive) | > 100 µM (inactive) | > 100 µM (inactive) | > 100 µM (inactive) | > 100 µM (inactive) | > 100 µM (inactive) | > 100 µM (inactive) | > 100 µM (inactive) |  | > 100 µM (inactive) | > 100 µM (inactive) | > 100 µM (inactive) | > 100 µM (inactive) | > 100 | > 100 µM (inactive) | > 100 µM (inactive) | > 100 µM (inactive) | > 100 µM (inactive) | > 100 µM (inactive) | > 100 µM (inactive)
